According to patent publication US4992449A, “7-(substituted)cycloalkylamino-1 -(substituted)-6-fluoro-1,4-dihydro-4-oxo-3-quinolinecarboxylic acids” (American Cyanamid Company, priority 1990, dated 1991):
Values after ≈ are worked out from the molar mass of the structure shown.

Assays:
Assay in all cases: In vitro antibacterial MIC, agar plate dilution
Assay type in all cases: cell-based
[1] = system: Providencia stuartii CMC 83-3; details: CMC833, Mueller-Hinton agar, 10^4 CFU, 18 hours, 35° C.
Procedure: (§1) The in vitro antimicrobial spectrum of the compounds of this invention were determined by the agar plate dilution method with Mueller-Hinton agar and an inoculum of each test organism of approximately 10^4 colony forming units delivered by the Steers replicating device. The minimal inhibitory concentration (MIC) in mcg/ml is defined as the lowest concentration of test compound that inhibited visible growth after 18 hours incubation at 35° C. Results are given in Table I, with the test compounds identified by the number of their hereinafter described examples

[2] = system: Escherichia coli MOR 84-20; details: MOR8420, Mueller-Hinton agar, 10^4 CFU, 18 hours, 35° C.
Procedure: as §1

[3] = system: Klebsiella neumoniae IO 83-5; details: IO835, Mueller-Hinton agar, 10^4 CFU, 18 hours, 35° C.
Procedure: as §1

[4] = system: Staphylococcus aureus K 82-26; details: K8226, Mueller-Hinton agar, 10^4 CFU, 18 hours, 35° C.
Procedure: as §1

[5] = system: Serratia marcescens CMC 83-74; details: CMC8374, Mueller-Hinton agar, 10^4 CFU, 18 hours, 35° C.
Procedure: as §1

[6] = system: Staphylococcus aureus ATCC 29213; details: Staphylococcus aureus, ATCC29213, 18 h, Table I, Mueller-Hinton agar, 10^4 CFU, 18 hours, 35° C., read-out: MIC
Procedure: as §1

[7] = system: Staphylococcus aureus VGH 84-47; details: VGH8447, Mueller-Hinton agar, 10^4 CFU, 18 hours, 35° C.
Procedure: as §1

[8] = system: Escherichia coli VGH 84-19; details: VGH8419, Mueller-Hinton agar, 10^4 CFU, 18 hours, 35° C.
Procedure: as §1

[9] = system: Moranella morganii VGH 84-12; details: Mueller-Hinton agar, 10^4 CFU, 18 hours, 35° C.
Procedure: as §1

[10] = system: Enterobacter cloacae VGH 84-39; details: VGH8439, Mueller-Hinton agar, 10^4 CFU, 18 hours, 35° C.
Procedure: as §1

[11] = system: Staphylococcus faecalis VGH 84-69; details: VGH8469, Mueller-Hinton agar, 10^4 CFU, 18 hours, 35° C.
Procedure: as §1

[12] = system: Staphylococcus faecalis CMC 83-120; details: CMC83120, Mueller-Hinton agar, 10^4 CFU, 18 hours, 35° C.
Procedure: as §1

[13] = system: Proteus rettgeri IO 83-21; details: Providencia rettgeri, IO8321, Mueller-Hinton agar, 10^4 CFU, 18 hours, 35° C.
Procedure: as §1

[14] = system: Pseudomonas aeruginosa CMC 83-20; details: CMC8320, Mueller-Hinton agar, 10^4 CFU, 18 hours, 35° C.
Procedure: as §1

[15] = system: Streptococcus faecalis UCI 85-30; details: Enterococcus faecalis, UCI8530, Mueller-Hinton agar, 10^4 CFU, 18 hours, 35° C.
Procedure: as §1

[16] = system: Klebsiella neumoniae CMC 84-31; details: CMC8431, Mueller-Hinton agar, 10^4 CFU, 18 hours, 35° C.
Procedure: as §1

[17] = system: Citrobacter diversus K 82-24; details: Citrobacter koseri, K8224, Mueller-Hinton agar, 10^4 CFU, 18 hours, 35° C.
Procedure: as §1

[18] = system: Enterobacter cloacae MOR 84-30; details: MOR8430, Mueller-Hinton agar, 10^4 CFU, 18 hours, 35° C.
Procedure: as §1

[19] = system: Morganella morganii MOR 84-45; details: MOR8445, Mueller-Hinton agar, 10^4 CFU, 18 hours, 35° C.
Procedure: as §1

[20] = system: Moranella morganii CMC 84-38; details: Mueller-Hinton agar, 10^4 CFU, 18 hours, 35° C.
Procedure: as §1

[21] = system: Serratia marcescens IO 83-63; details: IO8363, Mueller-Hinton agar, 10^4 CFU, 18 hours, 35° C.
Procedure: as §1

[22] = system: Escherichia coli ATCC 25922; details: Escherichia coli, ATCC25922, 18 h, Table I; Escherichia coli ATCC 25922; Mueller-Hinton agar, 10^4 CFU, 18 hours, 35° C.; read-out: MIC
Procedure: as §1

[23] = system: Enterobacter cloacae K 84-10; details: K8410, Mueller-Hinton agar, 10^4 CFU, 18 hours, 35° C.
Procedure: as §1

[24] = system: Staphylococcus aureus CMC 83-131; details: CMC83131, Mueller-Hinton agar, 10^4 CFU, 18 hours, 35° C.
Procedure: as §1

[25] = system: Escherichia coli CMC 84-50; details: CMC8450, Mueller-Hinton agar, 10^4 CFU, 18 hours, 35° C.
Procedure: as §1

[26] = system: Serratia marcescens MOR 84-41; details: MOR8441, Mueller-Hinton agar, 10^4 CFU, 18 hours, 35° C.
Procedure: as §1

[27] = system: Pseudomonas aeruginosa VGH 84-16; details: VGH8416, Mueller-Hinton agar, 10^4 CFU, 18 hours, 35° C.
Procedure: as §1

[28] = system: Pseudomonas aeruginosa VGH 84-3; details: VGH843, Mueller-Hinton agar, 10^4 CFU, 18 hours, 35° C.
Procedure: as §1

[29] = system: Klebsiella neumoniae MOR 84-24; details: MOR8424, Mueller-Hinton agar, 10^4 CFU, 18 hours, 35° C.
Procedure: as §1

MIC [1]	MIC [2]	MIC [3]	MIC [4]	MIC [5]	MIC [6]	MIC [7]	MIC [8]	MIC [9]	MIC [10]	MIC [11]	MIC [12]	MIC [13]	MIC [14]	MIC [15]	MIC [16]	MIC [17]	MIC [18]	MIC [19]	MIC [20]	SMILES	also measured
> 16 µg/mL	0.5 µg/mL (≈ 1.45 µM)	2 µg/mL (≈ 5.79 µM)	4 µg/mL (≈ 11.6 µM)	> 16 µg/mL	4 µg/mL (≈ 11.6 µM)	4 µg/mL (≈ 11.6 µM)	1 µg/mL (≈ 2.9 µM)	4 µg/mL (≈ 11.6 µM)	1 µg/mL (≈ 2.9 µM)	> 16 µg/mL	> 16 µg/mL	4 µg/mL (≈ 11.6 µM)	8 µg/mL (≈ 23.2 µM)	> 16 µg/mL	2 µg/mL (≈ 5.79 µM)	0.5 µg/mL (≈ 1.45 µM)	2 µg/mL (≈ 5.79 µM)	2 µg/mL (≈ 5.79 µM)	1 µg/mL (≈ 2.9 µM)	N[C@H]1CCC[C@H]1Nc1cc2c(cc1F)c(=O)c(C(=O)O)cn2C1CC1 (relative stereo) [Example 2, Cis-7-[(2-Aminocyclopentyl)amino]-1-cyclopropyl-6-fluoro-1,4-dihydro-4-oxo-3-quinolinecarboxylic acid]	MIC [21]: 2 µg/mL (≈ 5.79 µM); MIC [22]: 0.5 µg/mL (≈ 1.45 µM); MIC [23]: 1 µg/mL (≈ 2.9 µM); MIC [24]: > 16 µg/mL; MIC [25]: 0.5 µg/mL (≈ 1.45 µM); MIC [26]: 1 µg/mL (≈ 2.9 µM); MIC [27]: 16 µg/mL (≈ 46.3 µM); MIC [28]: > 16 µg/mL; MIC [29]: 1 µg/mL (≈ 2.9 µM)
> 16 µg/mL	0.25 µg/mL (≈ 0.696 µM)	1 µg/mL (≈ 2.78 µM)	2 µg/mL (≈ 5.56 µM)	16 µg/mL (≈ 44.5 µM)	2 µg/mL (≈ 5.56 µM)	2 µg/mL (≈ 5.56 µM)	0.25 µg/mL (≈ 0.696 µM)	1 µg/mL (≈ 2.78 µM)	0.5 µg/mL (≈ 1.39 µM)	4 µg/mL (≈ 11.1 µM)	4 µg/mL (≈ 11.1 µM)	2 µg/mL (≈ 5.56 µM)	4 µg/mL (≈ 11.1 µM)	4 µg/mL (≈ 11.1 µM)	1 µg/mL (≈ 2.78 µM)	0.25 µg/mL (≈ 0.696 µM)	1 µg/mL (≈ 2.78 µM)	0.5 µg/mL (≈ 1.39 µM)	1 µg/mL (≈ 2.78 µM)	N[C@H]1CCCC[C@H]1Nc1cc2c(cc1F)c(=O)c(C(=O)O)cn2C1CC1 (relative stereo) [Example 1, Cis-7-[(2-Aminocyclohexyl)amino]1-cyclopropyl-6-fluoro-1,4-dihydro-4-oxo-3-quinolinecarboxylic acid]	MIC [21]: 1 µg/mL (≈ 2.78 µM); MIC [22]: 0.25 µg/mL (≈ 0.696 µM); MIC [23]: 0.5 µg/mL (≈ 1.39 µM); MIC [24]: 4 µg/mL (≈ 11.1 µM); MIC [25]: 1 µg/mL (≈ 2.78 µM); MIC [26]: 0.5 µg/mL (≈ 1.39 µM); MIC [27]: 8 µg/mL (≈ 22.3 µM); MIC [28]: > 16 µg/mL; MIC [29]: 1 µg/mL (≈ 2.78 µM)
